Earlier results, collected in article PMC9501525, “Conjugation of a Cationic Cell-Penetrating Peptide with a Novel Kunitzin-like Trypsin Inhibitor: New Insights for Enhancement of Peptide Bioactivities” (Pharmaceutics, 2022).

Key:
C. albicans (ATCC 10231) = settings: ref [26]; cited from earlier work
Excerpt: (§1) Table 3 MIC/MBC of kunitzin-OV2 and its relatives against different microorganisms. | column: TAT ^a

E. coli (ATCC 8739) = settings: ref [26]; cited from earlier work
Excerpt: as §1

[1] = system: P. aeruginosa (ATCC 9027); settings: ref [26]; cited from earlier work
Excerpt: as §1

MRSA (NCTC 12493) = settings: ref [26]; cited from earlier work
Excerpt: as §1

S. aureus (ATCC 6538) = settings: ref [26]; cited from earlier work
Excerpt: as §1

E. coli = system: E. coli; set-up: method as in PMID 28943153; settings: ref [41]; cited from earlier work

| Substance | MBC (C. albicans (ATCC 10231)) [µM] | MIC (C. albicans (ATCC 10231)) [µM] | MBC (E. coli (ATCC 8739)) [µM] | MIC (E. coli (ATCC 8739)) [µM] | MBC [1] [µM] | MIC [1] [µM] | MBC (MRSA (NCTC 12493)) [µM] | MIC (MRSA (NCTC 12493)) [µM] | MBC (S. aureus (ATCC 6538)) [µM] | MIC (S. aureus (ATCC 6538)) [µM] | MBC (E. coli) [µg/mL] | MIC (E. coli) [µg/mL] |
| --- | --- | --- | --- | --- | --- | --- | --- | --- | --- | --- | --- | --- |
| RKKRRQRRR [TAT, classical short cationic cell-penetrating peptide TAT48–56] | >128 | >128 | >128 | >128 | >128 | >128 | >128 | >128 | >128 | >128 | – | – |
| melittin: typical AMP, literature comparator, ref | – | – | – | – | – | – | – | – | – | – | 64 to 128 | 40 to 42.5 |
